Experimental data taken from patent US10487093B2, “Heterocyclic compounds, in particular 2-oxo-4,4,5,5,6,6,7,7-octahydrobenzoxazole derivatives, and their use as antibacterial compounds” (priority 2016, dated 2019).
In brackets after ≈: the same amount, converted by molar mass. Where two headings read alike, the source gives them in different places.

What was measured:
Format in all cases: cell-based
[1] = system: Clostridium difficile ATCC 700057; assay: MIC against anaerobes, agar dilution (CLSI), reference strain; conditions: Clostridioides difficile, ATCC700057, 48 h, read-out: MIC, C. difficile ATCC 700057
[2] = system: Bacteroides fragilis ATCC 25285; assay: as above; conditions: ATCC25285, 48 h, read-out: MIC, B. fragilis ATCC 25285
[3] = system: Bacteroides thetaiotaomicron ATCC 29741; assay: microbe, parasite or virus in culture; conditions: ATCC29741, 48 h, read-out: MIC, B. thetaiotaomicron ATCC
[4] = system: strains of Clostridium perfringens; assay: microbe, parasite or virus in culture
[5] = system: strains of Finegoldia magna; assay: MIC against anaerobes, agar dilution (CLSI), clinical isolates
[6] = system: strains of Parvimonas micra; assay: as above
[7] = system: strains of Peptoniphilus harei; assay: as above
[8] = system: strains of Peptostreptococcus anaerobius; assay: as above
[9] = system: strains of Propionibacterium acnes; assay: as above; conditions: Cutibacterium acnes
[10] = system: strains of Bacteroides fragilis; assay: as above
[11] = system: strains of Bacteroides thetaiotaomicron; assay: microbe, parasite or virus in culture
[12] = system: strains of Prevotella bivia; assay: MIC against anaerobes, agar dilution (CLSI), clinical isolates
[13] = system: strains of Prevotella melaninogenica; assay: as above

## CN[C@H](CC(C)C)C(=O)N[C@H]1C(=O)N[C@@H](CC(N)=O)C(=O)N[C@H]2C(=O)N[C@H]3C(=O)N[C@H](C(=O)N[C@H](C(=O)O)c4cc(O)cc(O)c4-c4cc3ccc4O)[C@H](O)c3ccc(c(Cl)c3)Oc3cc2cc(c3O[C@@H]2O[C@H](CO)[C@@H](O)[C@H](O)[C@H]2O[C@H]2C[C@](C)(N)[C@H](O)[C@H](C)O2)Oc2ccc(cc2Cl)[C@H]1O [VAN, vancomycin, reference compound]
[1]
  MIC: 1 to 4 µg/mL (≈ 0.69 to 2.76 µM)
[2]
  MIC: 16 to 64 µg/mL (≈ 11 to 44.2 µM)
[3]
  MIC: 16 to 64 µg/mL (≈ 11 to 44.2 µM)
[4]
  MIC: < 1 µg/mL
[5]; Finegoldia magna strain 1
  MIC: A (a MIC (in μg/mL) of less than 1 is assigned the letter A)
[5]; Finegoldia magna strain 2
  MIC: A (a MIC (in μg/mL) of less than 1 is assigned the letter A)
[5]; Finegoldia magna strain 3
  MIC: A (a MIC (in μg/mL) of less than 1 is assigned the letter A)
[5]; Finegoldia magna strain 4
  MIC: A (a MIC (in μg/mL) of less than 1 is assigned the letter A)
[5]; Finegoldia magna strain 5
  MIC: A (a MIC (in μg/mL) of less than 1 is assigned the letter A)
[5]; Finegoldia magna strain 6, read-out: MIC
  MIC: < 1 µg/mL
[5]; Finegoldia magna strain 7
  MIC: A (a MIC (in μg/mL) of less than 1 is assigned the letter A)
[5]; Finegoldia magna strain 8
  MIC: A (a MIC (in μg/mL) of less than 1 is assigned the letter A)
[5]; Finegoldia magna strain 9
  MIC: A (a MIC (in μg/mL) of less than 1 is assigned the letter A)
[5]; Finegoldia magna strain 10
  MIC: A (a MIC (in μg/mL) of less than 1 is assigned the letter A)
[5]; Finegoldia magna strain 11
  MIC: A (a MIC (in μg/mL) of less than 1 is assigned the letter A)
[5]; Finegoldia magna strain 12
  MIC: A (a MIC (in μg/mL) of less than 1 is assigned the letter A)
[6]; Parvimonas micra strain 1
  MIC: < 1 µg/mL
[6]; Parvimonas micra strain 2
  MIC: < 1 µg/mL
[6]; Parvimonas micra strain 3
  MIC: < 1 µg/mL
[6]; Parvimonas micra strain 4
  MIC: 1 to 4 µg/mL (≈ 0.69 to 2.76 µM)
[6]; Parvimonas micra strain 5
  MIC: 1 to 4 µg/mL (≈ 0.69 to 2.76 µM)
[6]; Parvimonas micra strain 6
  MIC: < 1 µg/mL
[6]; Parvimonas micra strain 7
  MIC: 1 to 4 µg/mL (≈ 0.69 to 2.76 µM)
[6]; Parvimonas micra strain 8
  MIC: < 1 µg/mL
[6]; Parvimonas micra strain 9
  MIC: < 1 µg/mL
[6]; Parvimonas micra strain 10
  MIC: < 1 µg/mL
[6]; Parvimonas micra strain 11
  MIC: < 1 µg/mL
[6]; Parvimonas micra strain 12
  MIC: < 1 µg/mL
[7]; Peptoniphilus harei strain 1
  MIC: A (a MIC (in μg/mL) of less than 1 is assigned the letter A)
[7]; Peptoniphilus harei strain 2
  MIC: A (a MIC (in μg/mL) of less than 1 is assigned the letter A)
[7]; Peptoniphilus harei strain 3
  MIC: A (a MIC (in μg/mL) of less than 1 is assigned the letter A)
[7]; Peptoniphilus harei strain 4
  MIC: A (a MIC (in μg/mL) of less than 1 is assigned the letter A)
[7]; Peptoniphilus harei strain 5
  MIC: A (a MIC (in μg/mL) of less than 1 is assigned the letter A)
[7]; Peptoniphilus harei strain 6, read-out: MIC
  MIC: < 1 µg/mL
[7]; Peptoniphilus harei strain 7
  MIC: A (a MIC (in μg/mL) of less than 1 is assigned the letter A)
[7]; Peptoniphilus harei strain 8
  MIC: A (a MIC (in μg/mL) of less than 1 is assigned the letter A)
[7]; Peptoniphilus harei strain 9
  MIC: A (a MIC (in μg/mL) of less than 1 is assigned the letter A)
[7]; Peptoniphilus harei strain 10
  MIC: A (a MIC (in μg/mL) of less than 1 is assigned the letter A)
[7]; Peptoniphilus harei strain 11
  MIC: A (a MIC (in μg/mL) of less than 1 is assigned the letter A)
[7]; Peptoniphilus harei strain 12
  MIC: A (a MIC (in μg/mL) of less than 1 is assigned the letter A)
[8]; Peptostreptococcus anaerobius strain 1
  MIC: < 1 µg/mL
[8]; Peptostreptococcus anaerobius strain 2
  MIC: < 1 µg/mL
[8]; Peptostreptococcus anaerobius strain 3
  MIC: < 1 µg/mL
[8]; Peptostreptococcus anaerobius strain 4
  MIC: > 64 µg/mL
[8]; Peptostreptococcus anaerobius strain 5
  MIC: < 1 µg/mL
[8]; Peptostreptococcus anaerobius strain 6
  MIC: < 1 µg/mL
[8]; Peptostreptococcus anaerobius strain 7
  MIC: < 1 µg/mL
[8]; Peptostreptococcus anaerobius strain 8
  MIC: < 1 µg/mL
[8]; Peptostreptococcus anaerobius strain 9
  MIC: < 1 µg/mL
[8]; Peptostreptococcus anaerobius strain 10
  MIC: < 1 µg/mL
[9]; Propionibacterium acnes strain 1
  MIC: < 1 µg/mL
[9]; Propionibacterium acnes strain 2
  MIC: < 1 µg/mL
[9]; Propionibacterium acnes strain 3
  MIC: < 1 µg/mL
[9]; Propionibacterium acnes strain 4
  MIC: < 1 µg/mL
[9]; Propionibacterium acnes strain 5
  MIC: < 1 µg/mL
[9]; Propionibacterium acnes strain 6
  MIC: < 1 µg/mL
[9]; Propionibacterium acnes strain 7
  MIC: < 1 µg/mL
[9]; Propionibacterium acnes strain 8
  MIC: < 1 µg/mL
[9]; Propionibacterium acnes strain 9
  MIC: < 1 µg/mL
[9]; Propionibacterium acnes strain 10
  MIC: < 1 µg/mL
[9]; Propionibacterium acnes strain 11
  MIC: < 1 µg/mL
[9]; Propionibacterium acnes strain 12
  MIC: 4 to 16 µg/mL (≈ 2.76 to 11 µM)
[10]; Bacteroides fragilis strain 1
  MIC: 16 to 64 µg/mL (≈ 11 to 44.2 µM)
[10]; Bacteroides fragilis strain 2
  MIC: 16 to 64 µg/mL (≈ 11 to 44.2 µM)
[10]; Bacteroides fragilis strain 3
  MIC: 4 to 16 µg/mL (≈ 2.76 to 11 µM)
[10]; Bacteroides fragilis strain 4
  MIC: 16 to 64 µg/mL (≈ 11 to 44.2 µM)
[10]; Bacteroides fragilis strain 5
  MIC: 16 to 64 µg/mL (≈ 11 to 44.2 µM)
[10]; Bacteroides fragilis strain 6
  MIC: 4 to 16 µg/mL (≈ 2.76 to 11 µM)
[10]; Bacteroides fragilis strain 7
  MIC: 4 to 16 µg/mL (≈ 2.76 to 11 µM)
[10]; Bacteroides fragilis strain 8
  MIC: 16 to 64 µg/mL (≈ 11 to 44.2 µM)
[10]; Bacteroides fragilis strain 9
  MIC: 4 to 16 µg/mL (≈ 2.76 to 11 µM)
[10]; Bacteroides fragilis strain 10
  MIC: 16 to 64 µg/mL (≈ 11 to 44.2 µM)
[10]; Bacteroides fragilis strain 11
  MIC: 16 to 64 µg/mL (≈ 11 to 44.2 µM)
[10]; Bacteroides fragilis strain 12
  MIC: 16 to 64 µg/mL (≈ 11 to 44.2 µM)
[11]; Bacteroides thetaiotaomicron strain 1, read-out: MIC
  MIC: 16 to 64 µg/mL (≈ 11 to 44.2 µM)
[11]; Bacteroides thetaiotaomicron strain 2, read-out: MIC
  MIC: 16 to 64 µg/mL (≈ 11 to 44.2 µM)
[11]; Bacteroides thetaiotaomicron strain 3, read-out: MIC
  MIC: 16 to 64 µg/mL (≈ 11 to 44.2 µM)
[11]; Bacteroides thetaiotaomicron strain 4, read-out: MIC
  MIC: 16 to 64 µg/mL (≈ 11 to 44.2 µM)
[11]; Bacteroides thetaiotaomicron strain 5, read-out: MIC
  MIC: 16 to 64 µg/mL (≈ 11 to 44.2 µM)
[11]; Bacteroides thetaiotaomicron strain 6, read-out: MIC
  MIC: 16 to 64 µg/mL (≈ 11 to 44.2 µM)
[11]; Bacteroides thetaiotaomicron strain 7, read-out: MIC
  MIC: 16 to 64 µg/mL (≈ 11 to 44.2 µM)
[11]; Bacteroides thetaiotaomicron strain 8, read-out: MIC
  MIC: 16 to 64 µg/mL (≈ 11 to 44.2 µM)
[11]; Bacteroides thetaiotaomicron strain 9, read-out: MIC
  MIC: < 1 µg/mL
[11]; Bacteroides thetaiotaomicron strain 10, read-out: MIC
  MIC: 16 to 64 µg/mL (≈ 11 to 44.2 µM)
[11]; Bacteroides thetaiotaomicron strain 11, read-out: MIC
  MIC: 16 to 64 µg/mL (≈ 11 to 44.2 µM)
[12]; Prevotella bivia strain 1
  MIC: > 64 µg/mL
[12]; Prevotella bivia strain 2
  MIC: > 64 µg/mL
[12]; Prevotella bivia strain 3
  MIC: 16 to 64 µg/mL (≈ 11 to 44.2 µM)
[12]; Prevotella bivia strain 4
  MIC: > 64 µg/mL
[12]; Prevotella bivia strain 5
  MIC: > 64 µg/mL
[12]; Prevotella bivia strain 6
  MIC: > 64 µg/mL
[12]; Prevotella bivia strain 7
  MIC: > 64 µg/mL
[12]; Prevotella bivia strain 8
  MIC: 16 to 64 µg/mL (≈ 11 to 44.2 µM)
[12]; Prevotella bivia strain 9
  MIC: > 64 µg/mL
[12]; Prevotella bivia strain 10
  MIC: 16 to 64 µg/mL (≈ 11 to 44.2 µM)
[13]; Prevotella melaninogenica strain 1
  MIC: > 64 µg/mL
[13]; Prevotella melaninogenica strain 2
  MIC: 4 to 16 µg/mL (≈ 2.76 to 11 µM)
[13]; Prevotella melaninogenica strain 3
  MIC: > 64 µg/mL
[13]; Prevotella melaninogenica strain 4
  MIC: > 64 µg/mL
[13]; Prevotella melaninogenica strain 5
  MIC: 16 to 64 µg/mL (≈ 11 to 44.2 µM)
[13]; Prevotella melaninogenica strain 6
  MIC: > 64 µg/mL
[13]; Prevotella melaninogenica strain 7
  MIC: 16 to 64 µg/mL (≈ 11 to 44.2 µM)
[13]; Prevotella melaninogenica strain 8
  MIC: 4 to 16 µg/mL (≈ 2.76 to 11 µM)
[13]; Prevotella melaninogenica strain 9
  MIC: 4 to 16 µg/mL (≈ 2.76 to 11 µM)
[13]; Prevotella melaninogenica strain 10
  MIC: > 64 µg/mL
[13]; Prevotella melaninogenica strain 11
  MIC: > 64 µg/mL
